Experimental data published in patent US20260138961A1, “MODULATORS OF MITOCHONDRIAL DNA REPLICATION” (Pretzel Therapeutics, Inc., priority 2022, published 2026).

Target: T1, wild type human POLγ (POLγA:WT) (Homo sapiens, UniProt P54098)
T1 sequence (P54098 1-1239): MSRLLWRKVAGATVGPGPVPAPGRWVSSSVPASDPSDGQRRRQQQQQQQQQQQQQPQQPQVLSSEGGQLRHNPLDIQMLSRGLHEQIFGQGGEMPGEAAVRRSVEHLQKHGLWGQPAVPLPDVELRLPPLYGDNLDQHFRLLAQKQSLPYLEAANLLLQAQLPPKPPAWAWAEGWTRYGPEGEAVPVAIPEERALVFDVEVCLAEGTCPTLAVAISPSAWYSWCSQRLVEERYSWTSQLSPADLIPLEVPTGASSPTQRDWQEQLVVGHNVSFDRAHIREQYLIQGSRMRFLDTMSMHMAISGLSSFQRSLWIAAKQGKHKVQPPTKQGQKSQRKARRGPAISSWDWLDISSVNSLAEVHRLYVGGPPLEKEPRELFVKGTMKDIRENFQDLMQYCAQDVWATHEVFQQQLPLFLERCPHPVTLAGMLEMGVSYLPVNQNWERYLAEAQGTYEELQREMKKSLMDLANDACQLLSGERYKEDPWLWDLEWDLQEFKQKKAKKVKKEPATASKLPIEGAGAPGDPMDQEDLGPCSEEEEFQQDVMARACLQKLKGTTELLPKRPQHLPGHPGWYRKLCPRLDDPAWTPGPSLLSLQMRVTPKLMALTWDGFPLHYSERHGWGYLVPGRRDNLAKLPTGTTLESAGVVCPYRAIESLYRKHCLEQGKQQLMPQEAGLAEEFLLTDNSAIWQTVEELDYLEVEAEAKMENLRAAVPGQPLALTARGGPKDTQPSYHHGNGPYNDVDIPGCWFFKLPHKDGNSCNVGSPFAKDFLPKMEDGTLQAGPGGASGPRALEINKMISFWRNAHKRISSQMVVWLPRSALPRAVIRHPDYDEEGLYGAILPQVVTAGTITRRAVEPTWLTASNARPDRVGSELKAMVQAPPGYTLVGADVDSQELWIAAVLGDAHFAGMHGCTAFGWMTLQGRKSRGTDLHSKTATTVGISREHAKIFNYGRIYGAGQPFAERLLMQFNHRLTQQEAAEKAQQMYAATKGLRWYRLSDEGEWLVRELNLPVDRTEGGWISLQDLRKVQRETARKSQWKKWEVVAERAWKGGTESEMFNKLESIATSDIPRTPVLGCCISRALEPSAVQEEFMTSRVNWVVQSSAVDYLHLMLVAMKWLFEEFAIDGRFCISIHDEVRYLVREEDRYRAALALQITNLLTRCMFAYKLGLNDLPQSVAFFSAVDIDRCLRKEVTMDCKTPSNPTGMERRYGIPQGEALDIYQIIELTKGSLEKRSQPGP
T1 sequence (Q9UHN1 1-485 partner): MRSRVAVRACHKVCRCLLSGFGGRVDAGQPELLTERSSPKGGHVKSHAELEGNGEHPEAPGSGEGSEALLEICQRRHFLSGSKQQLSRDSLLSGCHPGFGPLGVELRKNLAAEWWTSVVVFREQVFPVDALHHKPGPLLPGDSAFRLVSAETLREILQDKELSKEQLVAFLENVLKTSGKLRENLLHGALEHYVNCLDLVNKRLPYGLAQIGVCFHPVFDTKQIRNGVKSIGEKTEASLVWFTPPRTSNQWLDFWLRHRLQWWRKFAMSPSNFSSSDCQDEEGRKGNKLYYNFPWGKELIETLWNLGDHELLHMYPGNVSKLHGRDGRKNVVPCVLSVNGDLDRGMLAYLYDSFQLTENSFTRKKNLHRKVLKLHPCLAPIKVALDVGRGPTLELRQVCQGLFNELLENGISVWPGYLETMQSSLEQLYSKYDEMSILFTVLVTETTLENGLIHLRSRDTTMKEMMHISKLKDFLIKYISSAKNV
Assay: DNA polymerization assay, wild type POLγ
Assay type: biochemical
Details: 0.1 μM dNTP, read-out: WT AC50 (μM) at 0.1 μM

In the case of Cc1csc(-c2ccccc2NS(=O)(=O)c2cc(C)c(Cl)cc2C)n1 [Example 80, 4-chloro-2,5-dimethyl-N-(2-(4-methylthiazol-2-yl)phenyl)benzenesulfonamide], the AC50 is reported as over 100 µM.

Same assay, conditions: 100 μM dNTP, read-out: WT AC50 (μM) at 100 μM

Point of comparison: Cc1cc(S(=O)(=O)Nc2ccc3ccn(C)c3c2)c(C)cc1Cl [Example 72, 4-chloro-2,5-dimethyl-N-(1-methyl-1H-indol-6-yl)benzenesulfonamide], AC50 4 µM. Against it:
- Cc1nc2ccc(NS(=O)(=O)c3cc(C)c(Cl)cc3C)cc2s1 [Example 73, 4-chloro-2,5-dimethyl-N-(2-methylbenzo[d]thiazol-6-yl)benzenesulfonamide] — 2-fold lower, 2 µM
- Cc1cc(S(=O)(=O)Nc2cccc(-c3ncc(C4CC4)s3)c2)c(C)cc1Cl [Example 76, 4-chloro-N-(3-(5-cyclopropylthiazol-2-yl)phenyl)-2,5-dimethylbenzenesulfonamide] — 10-fold lower, 0.4 µM
- Cc1cc(S(=O)(=O)Nc2csc(-c3ccccc3)n2)c(C)cc1Cl [Example 81, 4-chloro-2,5-dimethyl-N-(2-phenylthiazol-4-yl)benzenesulfonamide] — 20-fold lower, 0.2 µM
- Cc1cnc(-c2ccc(NS(=O)(=O)c3cc(C)c(Cl)cc3C)cc2)s1 [Example 83, 4-chloro-2,5-dimethyl-N-(4-(5-methylthiazol-2-yl)phenyl)benzenesulfonamide] — 1.5-fold higher, 6 µM
- Cc1cc(S(=O)(=O)Nc2cccc(-c3ncc(CN(C)C)s3)c2)c(C)cc1Cl [Example 87, 4-chloro-N-(3-(5-((dimethylamino)methyl)thiazol-2-yl)phenyl)-2,5-dimethylbenzenesulfonamide] — the same, 4 µM
- Cc1cc(S(=O)(=O)Nc2cccc(-c3ncc(CO)s3)c2)c(C)cc1Cl [Example 89, 4-chloro-N-(3-(5-(hydroxymethyl)thiazol-2-yl)phenyl)-2,5-dimethylbenzenesulfonamide] — 13-fold lower, 0.3 µM
